Here are results for three compounds from patent publication US20080194695A1, “Pharmaceutical Composition Containing Sibutramine Free Base and Manufacturing Method Thereof” (priority 2005, published 2008).

Data set [1] in a line: Solubility and dissolution as stated in the background art. The conditions noted are these: distilled water and pH 6.8 buffered solution.
The nature of data set [2]: Dissolution test, paddle method of the Korean Pharmacopoeia, 50 rpm, capsules with sinker, HPLC. The data set is classed as physicochemical. The procedure: Dissolution tests were performed with examples 1˜6, comparative examples 1˜2, sibutramine free base itself and Reductil™ (Abbott Korea Limited) containing 10[…] of sibutramine hydrochloride monohydrate. To keep dissolution test condition similar, the contents of sibutramine in examples and comparative examples were evaluated with the below HPLC analysis condition and then the predetermined amount of examples, comparative examples and sibutramine free base itself were filled in one capsule to make capsules having 8.37[…] of sibutramine free base. These capsules were used in dissolution tests.
500[…] of pH 4.5 buffered solution [2.99 g of Sodium acetate trihydrate and 1.66[…] of acetic acid anhydrous were dissolved in 1 L of distilled water and then pH of the solution was adjusted to pH 4.5±0.05] and 500[…] of pH 6.8 buffered solution [118[…] of 0.2 mol/L NaOH solution was added to 250[…] of 0.2 mol/L […], and then distilled water was added to make the solution 1000[…]] were used as dissolution media. Paddle method of dissolution test of the Korean Pharmacopoeia was used and paddle was rotated at 50 rpm. Dissolution test was performed for 45 minutes and sinker was also used.
For HPLC analysis, mixture (350:640:10) of acetonitrile, water and tetrahydrofuran was used as mobile phase and ion pair reagent PIC B5 (Low UV) was added to the mobile phase to adjust retention time of peak, and then pH was adjusted to 3.0 with phosphoric acid. Wavelength for determination was 229[…] and flow rate was 1.5[…]/min and injection volume was 20[…].
Results were shown as percent (%) of sibutramine dissolved into dissolution media from test samples compared to the total amount of sibutramine contained in each sample.

A short description of data set [3]: Hygroscopicity and storage stability of the drug substance as stated in the background art. The settings on record: during storage.
For data set [4] the following is noted: background art; cited from earlier work.
For data set [5] the following is noted: as said in U.S. Pat. No. 6,900,245; cited from earlier work.

Structures can show the parent of a compound that is named as a salt. Where two headings read alike, the source gives them in different places.

With `CC(C)CC(N(C)C)C1(c2ccc(Cl)cc2)CCC1` (stereo not drawn) [Sibutramine free base, N,N-dimethyl-1-[1-(4-chlorophenyl)-cyclobutyl]-3-methylbutylamine], in data set [1], the solubility in words entry is listed as “does not almost dissolve”. In addition, the “percent of sibutramine dissolved into dissolution media” value in data set [2] (distilled water, 15 min) is given as 0%; in data set [2] (distilled water, 30 min), 0%; in data set [2] (distilled water, 45 min), 0%; in data set [2] (pH 4.5 buffered solution, 15 min), 62%; in data set [2] (pH 4.5 buffered solution, 30 min) it was 80%; in data set [2] (pH 4.5 buffered solution, 45 min), 88%. In addition, the “percent of sibutramine dissolved into dissolution media” value came to 0% in data set [2] (pH 6.8 buffered solution, 15 min); 0% in data set [2] (pH 6.8 buffered solution, 30 min); 0% in data set [2] (pH 6.8 buffered solution, 45 min). Moreover, the dissolution in words entry in data set [2] (pH 6.8 buffered solution) is “did not practically dissolve”. Also, in data set [3], the “storage stability in words” value is “may become sticky gel phase during storage”.
For `CC(C)CC(N(C)C)C1(c2ccc(Cl)cc2)CCC1.Cl` (stereo not drawn) [sibutramine hydrochloride anhydrous], in data set [4], the hygroscopicity in words result was “highly hygroscopic”.
Regarding `CC(C)CC(N(C)C)C1(c2ccc(Cl)cc2)CCC1` (stereo not drawn) [sibutramine hydrochloride monohydrate], the hygroscopicity in words entry in data set [4] is on record as “non-hygroscopic”. Also, the solubility in words entry in data set [5] is given as “insufficient”.
